Assay results: paper PMC4076210, “Discovery of Novel AKT Inhibitors with Enhanced Anti-Tumor Effects in Combination with the MEK Inhibitor” (PLoS ONE, 2014)
Where two headings read alike, the source gives them in different places.

Columns and labels:
Assay type in all cases: biochemical
MAPKAP-K2(h) = target: T1, MAPKAP-K2(h) (Homo sapiens, UniProt P49137); assay: Kinase panel
T1 construct: purchased Millipore KinaseProfiler

ZIPK(h) = target: T2, ZIPK(h) (Homo sapiens, UniProt O43293); assay: Kinase panel
T2 construct: purchased Millipore KinaseProfiler
T2 sequence (O43293 whole entry): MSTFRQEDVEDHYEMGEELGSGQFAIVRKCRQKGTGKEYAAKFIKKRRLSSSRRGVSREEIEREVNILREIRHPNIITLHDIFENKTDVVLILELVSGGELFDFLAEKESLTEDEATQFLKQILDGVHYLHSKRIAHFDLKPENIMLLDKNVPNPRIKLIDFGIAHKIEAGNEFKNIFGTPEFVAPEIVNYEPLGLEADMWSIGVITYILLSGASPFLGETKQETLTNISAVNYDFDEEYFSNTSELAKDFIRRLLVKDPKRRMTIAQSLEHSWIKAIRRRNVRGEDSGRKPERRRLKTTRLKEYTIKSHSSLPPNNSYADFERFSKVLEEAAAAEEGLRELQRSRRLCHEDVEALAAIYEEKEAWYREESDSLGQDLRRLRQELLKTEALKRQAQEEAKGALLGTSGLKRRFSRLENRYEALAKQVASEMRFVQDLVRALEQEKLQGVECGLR

Mnk2(h) = target: T3, Mnk2(h) (Homo sapiens, UniProt Q9HBH9); assay: Kinase panel
T3 construct: purchased Millipore KinaseProfiler

Plk1(h) = target: T4, Plk1(h) (Homo sapiens, UniProt P53350); assay: Kinase panel
T4 construct: purchased Millipore KinaseProfiler

IKKβ(h) = target: T5, IKKβ(h) (Homo sapiens, UniProt O14920); assay: Kinase panel
T5 construct: purchased Millipore KinaseProfiler
T5 sequence (O14920 1-756): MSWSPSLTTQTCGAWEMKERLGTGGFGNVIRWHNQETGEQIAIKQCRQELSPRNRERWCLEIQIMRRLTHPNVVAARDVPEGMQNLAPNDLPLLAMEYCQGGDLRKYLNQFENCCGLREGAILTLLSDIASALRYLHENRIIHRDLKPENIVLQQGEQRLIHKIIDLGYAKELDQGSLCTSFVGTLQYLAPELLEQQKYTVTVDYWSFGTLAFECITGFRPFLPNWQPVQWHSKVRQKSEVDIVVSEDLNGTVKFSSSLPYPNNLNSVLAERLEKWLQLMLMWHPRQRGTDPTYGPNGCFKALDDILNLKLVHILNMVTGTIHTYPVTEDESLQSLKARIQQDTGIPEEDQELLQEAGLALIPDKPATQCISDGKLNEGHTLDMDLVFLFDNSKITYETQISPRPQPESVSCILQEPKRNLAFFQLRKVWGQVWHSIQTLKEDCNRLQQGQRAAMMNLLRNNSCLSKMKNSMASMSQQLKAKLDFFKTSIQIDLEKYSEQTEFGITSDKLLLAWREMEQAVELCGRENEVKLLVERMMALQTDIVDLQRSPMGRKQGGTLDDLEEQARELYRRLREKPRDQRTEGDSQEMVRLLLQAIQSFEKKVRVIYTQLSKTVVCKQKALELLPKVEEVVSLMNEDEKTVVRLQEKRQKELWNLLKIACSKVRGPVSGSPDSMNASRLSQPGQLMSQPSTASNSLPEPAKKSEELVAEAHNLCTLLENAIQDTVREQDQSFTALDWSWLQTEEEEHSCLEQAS

Src(T341M)(h) = target: T6, Src(T341M)(h) (Homo sapiens, UniProt P12931, T341M); assay: Kinase panel
T6 construct: purchased Millipore KinaseProfiler
T6 sequence (P12931 whole entry T341M): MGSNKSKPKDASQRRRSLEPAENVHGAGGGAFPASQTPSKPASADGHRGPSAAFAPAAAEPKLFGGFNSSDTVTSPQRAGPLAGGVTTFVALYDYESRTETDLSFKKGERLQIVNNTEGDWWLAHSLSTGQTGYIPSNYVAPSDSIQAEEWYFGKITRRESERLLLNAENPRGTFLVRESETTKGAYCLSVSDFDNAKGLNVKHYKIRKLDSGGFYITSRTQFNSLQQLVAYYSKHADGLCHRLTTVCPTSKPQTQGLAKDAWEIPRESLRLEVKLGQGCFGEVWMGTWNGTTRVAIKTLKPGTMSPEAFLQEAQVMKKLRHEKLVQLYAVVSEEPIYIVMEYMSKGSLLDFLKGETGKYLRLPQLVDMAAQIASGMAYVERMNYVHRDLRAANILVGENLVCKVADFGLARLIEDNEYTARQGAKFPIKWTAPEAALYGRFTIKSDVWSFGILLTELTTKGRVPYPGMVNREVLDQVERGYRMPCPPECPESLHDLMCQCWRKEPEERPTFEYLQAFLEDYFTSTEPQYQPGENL

STK33(h) = target: T7, STK33(h) (Homo sapiens, UniProt Q9BYT3); assay: Kinase panel
T7 construct: purchased Millipore KinaseProfiler
T7 sequence (Q9BYT3 whole entry): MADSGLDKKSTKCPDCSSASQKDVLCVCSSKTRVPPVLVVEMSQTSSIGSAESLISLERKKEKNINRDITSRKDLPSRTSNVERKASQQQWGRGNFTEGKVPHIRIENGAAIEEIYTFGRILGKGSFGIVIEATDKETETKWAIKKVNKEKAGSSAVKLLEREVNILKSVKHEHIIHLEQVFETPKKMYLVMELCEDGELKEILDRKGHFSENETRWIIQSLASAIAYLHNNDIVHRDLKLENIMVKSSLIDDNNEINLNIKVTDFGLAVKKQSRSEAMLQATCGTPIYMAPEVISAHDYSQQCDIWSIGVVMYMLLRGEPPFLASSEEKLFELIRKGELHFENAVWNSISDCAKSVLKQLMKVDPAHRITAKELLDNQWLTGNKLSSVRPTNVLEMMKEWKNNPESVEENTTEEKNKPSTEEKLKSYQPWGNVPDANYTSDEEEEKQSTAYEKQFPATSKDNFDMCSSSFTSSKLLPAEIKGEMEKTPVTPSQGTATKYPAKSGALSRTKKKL

MuSK(h) = target: T8, MuSK(h) (Homo sapiens, UniProt O15146); assay: Kinase panel
T8 construct: purchased Millipore KinaseProfiler
T8 sequence (O15146 24-869): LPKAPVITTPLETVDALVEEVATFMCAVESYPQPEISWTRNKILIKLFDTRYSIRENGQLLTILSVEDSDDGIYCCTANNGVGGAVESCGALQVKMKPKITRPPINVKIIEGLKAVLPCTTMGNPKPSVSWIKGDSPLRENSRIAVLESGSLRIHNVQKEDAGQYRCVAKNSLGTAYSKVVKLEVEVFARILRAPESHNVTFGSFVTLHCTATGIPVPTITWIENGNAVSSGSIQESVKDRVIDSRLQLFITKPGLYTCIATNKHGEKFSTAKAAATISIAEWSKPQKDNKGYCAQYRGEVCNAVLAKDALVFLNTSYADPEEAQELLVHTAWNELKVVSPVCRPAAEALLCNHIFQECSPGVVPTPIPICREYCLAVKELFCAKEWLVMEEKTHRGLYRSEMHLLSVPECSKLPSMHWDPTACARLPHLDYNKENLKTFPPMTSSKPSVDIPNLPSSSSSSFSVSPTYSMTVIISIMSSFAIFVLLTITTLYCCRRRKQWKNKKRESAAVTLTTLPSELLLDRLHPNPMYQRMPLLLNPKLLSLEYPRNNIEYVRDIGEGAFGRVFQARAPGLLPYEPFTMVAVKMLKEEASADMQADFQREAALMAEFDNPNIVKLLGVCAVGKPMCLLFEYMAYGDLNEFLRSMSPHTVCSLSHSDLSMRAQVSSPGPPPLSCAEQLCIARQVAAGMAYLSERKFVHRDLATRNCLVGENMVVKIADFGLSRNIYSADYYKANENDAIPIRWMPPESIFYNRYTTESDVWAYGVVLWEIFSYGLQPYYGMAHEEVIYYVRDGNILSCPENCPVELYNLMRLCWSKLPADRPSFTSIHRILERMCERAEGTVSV

PKCε = PKCε (Homo sapiens, UniProt Q02156); assay: Kinase IC50 assay
Abl(Y253F)(h) = target: T9, Abl(Y253F)(h) (Homo sapiens, UniProt P00519, Y253F); assay: Kinase panel
T9 construct: purchased Millipore KinaseProfiler

CDK6/cyclinD3(h) = target: T10, CDK6/cyclinD3(h) (Homo sapiens, UniProt Q00534); assay: Kinase panel
T10 construct: purchased Millipore KinaseProfiler

PDGFRα(D842V)(h) = target: T11, PDGFRα(D842V)(h) (Homo sapiens, UniProt P16234, D842V); assay: Kinase panel
T11 construct: purchased Millipore KinaseProfiler
T11 sequence (P16234 24-1089 D842V): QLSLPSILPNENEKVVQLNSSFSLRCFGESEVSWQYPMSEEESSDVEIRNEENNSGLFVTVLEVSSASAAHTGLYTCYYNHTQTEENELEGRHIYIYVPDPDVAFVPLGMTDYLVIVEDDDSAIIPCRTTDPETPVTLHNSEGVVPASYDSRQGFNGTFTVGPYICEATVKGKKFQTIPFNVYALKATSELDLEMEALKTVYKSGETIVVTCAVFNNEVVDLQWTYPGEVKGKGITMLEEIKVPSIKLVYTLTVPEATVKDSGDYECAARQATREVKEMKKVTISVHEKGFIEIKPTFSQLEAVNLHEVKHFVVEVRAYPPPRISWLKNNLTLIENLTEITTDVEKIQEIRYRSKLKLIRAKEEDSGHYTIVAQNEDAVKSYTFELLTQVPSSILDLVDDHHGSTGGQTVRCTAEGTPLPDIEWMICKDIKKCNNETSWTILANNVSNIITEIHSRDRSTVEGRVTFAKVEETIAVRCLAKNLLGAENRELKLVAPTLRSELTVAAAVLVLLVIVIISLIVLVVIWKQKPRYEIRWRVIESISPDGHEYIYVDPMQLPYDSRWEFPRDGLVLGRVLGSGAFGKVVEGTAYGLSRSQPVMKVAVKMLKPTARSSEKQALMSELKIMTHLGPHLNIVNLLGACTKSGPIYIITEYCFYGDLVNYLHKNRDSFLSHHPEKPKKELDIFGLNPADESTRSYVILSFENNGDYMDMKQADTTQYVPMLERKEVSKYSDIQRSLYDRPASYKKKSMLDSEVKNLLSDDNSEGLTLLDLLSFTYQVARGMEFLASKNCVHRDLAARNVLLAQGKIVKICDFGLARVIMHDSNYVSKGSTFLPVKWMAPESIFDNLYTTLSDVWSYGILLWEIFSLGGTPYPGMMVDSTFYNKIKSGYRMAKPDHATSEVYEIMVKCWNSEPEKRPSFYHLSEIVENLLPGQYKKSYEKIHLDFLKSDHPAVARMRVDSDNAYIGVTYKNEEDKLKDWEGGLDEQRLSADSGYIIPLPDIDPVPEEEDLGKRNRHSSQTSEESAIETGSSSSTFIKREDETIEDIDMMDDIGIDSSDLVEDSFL

Ron(h) = target: T12, Ron(h) (Homo sapiens, UniProt Q04912); assay: Kinase panel
T12 construct: purchased Millipore KinaseProfiler
T12 sequence (Q04912 25-1400): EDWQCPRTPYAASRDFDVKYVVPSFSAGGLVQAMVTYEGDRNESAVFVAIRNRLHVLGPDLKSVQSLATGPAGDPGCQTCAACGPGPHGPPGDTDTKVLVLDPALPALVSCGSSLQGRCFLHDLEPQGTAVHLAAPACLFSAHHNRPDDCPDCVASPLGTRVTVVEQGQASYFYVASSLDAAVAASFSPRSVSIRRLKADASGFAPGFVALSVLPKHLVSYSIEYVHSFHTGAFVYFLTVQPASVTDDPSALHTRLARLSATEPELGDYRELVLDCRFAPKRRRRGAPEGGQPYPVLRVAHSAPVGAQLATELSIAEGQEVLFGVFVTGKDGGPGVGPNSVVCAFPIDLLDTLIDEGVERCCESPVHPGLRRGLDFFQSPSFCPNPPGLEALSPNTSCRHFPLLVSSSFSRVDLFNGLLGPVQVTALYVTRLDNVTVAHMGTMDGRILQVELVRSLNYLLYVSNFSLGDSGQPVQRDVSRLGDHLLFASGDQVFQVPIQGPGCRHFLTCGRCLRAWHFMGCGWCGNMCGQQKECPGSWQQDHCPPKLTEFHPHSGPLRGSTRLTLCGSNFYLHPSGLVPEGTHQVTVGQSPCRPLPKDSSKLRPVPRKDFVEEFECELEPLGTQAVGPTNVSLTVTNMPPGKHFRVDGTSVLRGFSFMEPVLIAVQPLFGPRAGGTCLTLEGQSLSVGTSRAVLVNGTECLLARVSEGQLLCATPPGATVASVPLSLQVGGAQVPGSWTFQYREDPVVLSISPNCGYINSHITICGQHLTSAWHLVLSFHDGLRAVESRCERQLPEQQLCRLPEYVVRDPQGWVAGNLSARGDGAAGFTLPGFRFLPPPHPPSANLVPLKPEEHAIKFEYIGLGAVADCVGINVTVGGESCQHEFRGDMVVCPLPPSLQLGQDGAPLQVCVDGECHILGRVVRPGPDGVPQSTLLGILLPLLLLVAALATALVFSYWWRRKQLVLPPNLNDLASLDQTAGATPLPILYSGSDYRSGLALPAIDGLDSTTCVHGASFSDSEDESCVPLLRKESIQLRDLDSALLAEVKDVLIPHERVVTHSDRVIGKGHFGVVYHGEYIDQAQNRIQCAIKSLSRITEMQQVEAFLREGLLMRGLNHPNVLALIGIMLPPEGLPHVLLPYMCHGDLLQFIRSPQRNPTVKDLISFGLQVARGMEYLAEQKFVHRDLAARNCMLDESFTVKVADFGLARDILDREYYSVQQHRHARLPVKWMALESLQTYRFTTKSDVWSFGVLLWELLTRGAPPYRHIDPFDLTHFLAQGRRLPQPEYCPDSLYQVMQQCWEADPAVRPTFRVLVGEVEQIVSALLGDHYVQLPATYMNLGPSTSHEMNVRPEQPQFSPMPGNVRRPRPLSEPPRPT

MAPK2(h) = target: T13, MAPK2(h) (Homo sapiens, UniProt P28482); assay: Kinase panel
T13 construct: purchased Millipore KinaseProfiler
T13 sequence (P28482 whole entry): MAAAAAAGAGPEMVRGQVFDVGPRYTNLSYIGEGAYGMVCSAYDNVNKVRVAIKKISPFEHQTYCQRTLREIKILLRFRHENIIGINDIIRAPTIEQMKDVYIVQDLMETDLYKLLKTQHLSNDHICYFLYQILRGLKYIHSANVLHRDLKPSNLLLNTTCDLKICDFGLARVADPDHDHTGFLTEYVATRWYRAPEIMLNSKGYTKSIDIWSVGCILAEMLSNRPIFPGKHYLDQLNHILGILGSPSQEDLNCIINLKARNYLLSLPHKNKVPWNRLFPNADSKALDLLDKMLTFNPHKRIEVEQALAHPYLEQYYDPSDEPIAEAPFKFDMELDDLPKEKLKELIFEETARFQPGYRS

PKG1α = PKG1α (Homo sapiens, UniProt Q13976); assay: Kinase IC50 assay
Rsk2(h) = target: T14, Rsk2(h) (Homo sapiens, UniProt P51812); assay: Kinase panel
T14 construct: purchased Millipore KinaseProfiler

T1 sequence (P49137 whole entry): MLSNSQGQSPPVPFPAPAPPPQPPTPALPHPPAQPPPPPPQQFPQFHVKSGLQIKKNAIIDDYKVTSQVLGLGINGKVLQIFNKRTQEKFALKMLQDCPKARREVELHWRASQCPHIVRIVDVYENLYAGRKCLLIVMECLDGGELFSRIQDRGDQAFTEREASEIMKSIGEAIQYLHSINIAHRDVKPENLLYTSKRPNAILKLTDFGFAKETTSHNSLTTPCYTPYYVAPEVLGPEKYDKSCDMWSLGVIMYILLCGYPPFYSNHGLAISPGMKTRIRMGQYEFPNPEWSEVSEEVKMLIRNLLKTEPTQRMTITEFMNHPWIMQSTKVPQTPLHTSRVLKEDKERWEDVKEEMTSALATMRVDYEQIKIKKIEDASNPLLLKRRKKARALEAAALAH

For Cn1ncc(Cl)c1-c1cc(C(=O)N[C@H](CN)Cc2ccc(F)c(F)c2)oc1Cl [GSK2141795], the inhibition at 0.5 µM (MAPKAP-K2(h); 0.5 µM, read-out: % Inhibition) was -6%, the inhibition at 10 µM (MAPKAP-K2(h); 10 µM, read-out: % Inhibition) was -12% and the inhibition at 0.5 µM (ZIPK(h); 0.5 µM, read-out: % Inhibition) was 19%. It also gave an inhibition at 10 µM (ZIPK(h); 10 µM, read-out: % Inhibition) of 78%, an inhibition at 0.5 µM (Mnk2(h); 0.5 µM, read-out: % Inhibition) of 9% and an inhibition at 10 µM (Mnk2(h); 10 µM, read-out: % Inhibition) of 80%. The inhibition at 0.5 µM (Plk1(h); 0.5 µM, read-out: % Inhibition) was -34%, the inhibition at 10 µM (Plk1(h); 10 µM, read-out: % Inhibition) was 8% and the inhibition at 0.5 µM (IKKβ(h); 0.5 µM, read-out: % Inhibition) was -2%. The inhibition at 10 µM (IKKβ(h); 10 µM, read-out: % Inhibition) was 13%, the inhibition at 0.5 µM (Src(T341M)(h); 0.5 µM, read-out: % Inhibition) was 34% and the inhibition at 10 µM (Src(T341M)(h); 10 µM, read-out: % Inhibition) was 88%. For the same compound, the inhibition at 0.5 µM (STK33(h); 0.5 µM, read-out: % Inhibition) was 82%, the inhibition at 10 µM (STK33(h); 10 µM, read-out: % Inhibition) was 77% and the inhibition at 0.5 µM (MuSK(h); 0.5 µM, read-out: % Inhibition) was -11%. It also gave an inhibition at 10 µM (MuSK(h); 10 µM, read-out: % Inhibition) of -2%, an IC50 (PKCε) of over 1000 nM and an inhibition at 0.5 µM (Abl(Y253F)(h); 0.5 µM, read-out: % Inhibition) of -18%. The inhibition at 10 µM (Abl(Y253F)(h); 10 µM, read-out: % Inhibition) was -11%, the inhibition at 0.5 µM (CDK6/cyclinD3(h); 0.5 µM, read-out: % Inhibition) was -12% and the inhibition at 10 µM (CDK6/cyclinD3(h); 10 µM, read-out: % Inhibition) was -12%. It also gave an inhibition at 0.5 µM (PDGFRα(D842V)(h); 0.5 µM, read-out: % Inhibition) of -5%, an inhibition at 10 µM (PDGFRα(D842V)(h); 10 µM, read-out: % Inhibition) of 15% and an inhibition at 0.5 µM (Ron(h); 0.5 µM, read-out: % Inhibition) of 5%. For the same compound, the inhibition at 10 µM (Ron(h); 10 µM, read-out: % Inhibition) was 73%, the inhibition at 0.5 µM (MAPK2(h); 0.5 µM, read-out: % Inhibition) was 11% and the inhibition at 10 µM (MAPK2(h); 10 µM, read-out: % Inhibition) was 49%. For the same compound, the IC50 (PKG1α) was under 1 nM, the inhibition at 0.5 µM (Rsk2(h); 0.5 µM, read-out: % Inhibition) was 73% and the inhibition at 10 µM (Rsk2(h); 10 µM, read-out: % Inhibition) was 100%.
In the case of Cn1ncc(Cl)c1-c1cc(C(=O)N[C@H](CN)Cc2cccc(F)c2)sc1Cl [GSK2110183], the inhibition at 0.5 µM (MAPKAP-K2(h)) was -11%, the inhibition at 10 µM (MAPKAP-K2(h)) was 4% and the inhibition at 0.5 µM (ZIPK(h)) was 0%. It also gave an inhibition at 10 µM (ZIPK(h)) of 62%, an inhibition at 0.5 µM (Mnk2(h)) of 22% and an inhibition at 10 µM (Mnk2(h)) of 84%. The inhibition at 0.5 µM (Plk1(h)) was -21%, the inhibition at 10 µM (Plk1(h)) was -6% and the inhibition at 0.5 µM (IKKβ(h)) was 5%. For the same compound, the inhibition at 10 µM (IKKβ(h)) was 18%, the inhibition at 0.5 µM (Src(T341M)(h)) was 24% and the inhibition at 10 µM (Src(T341M)(h)) was 83%. The inhibition at 0.5 µM (STK33(h)) was 56%, the inhibition at 10 µM (STK33(h)) was 94% and the inhibition at 0.5 µM (MuSK(h)) was -25%. For the same compound, the inhibition at 10 µM (MuSK(h)) was -20%, the IC50 (PKCε) was over 1000 nM and the inhibition at 0.5 µM (Abl(Y253F)(h)) was 2%. For the same compound, the inhibition at 10 µM (Abl(Y253F)(h)) was 9%, the inhibition at 0.5 µM (CDK6/cyclinD3(h)) was 0% and the inhibition at 10 µM (CDK6/cyclinD3(h)) was 5%. The inhibition at 0.5 µM (PDGFRα(D842V)(h)) was -16%, the inhibition at 10 µM (PDGFRα(D842V)(h)) was -4% and the inhibition at 0.5 µM (Ron(h)) was 12%. For the same compound, the inhibition at 10 µM (Ron(h)) was 30%, the inhibition at 0.5 µM (MAPK2(h)) was -2% and the inhibition at 10 µM (MAPK2(h)) was 17%. For the same compound, the IC50 (PKG1α) was 0.9 nM, the inhibition at 0.5 µM (Rsk2(h)) was 63% and the inhibition at 10 µM (Rsk2(h)) was 97%.
